Structures can show the parent of a compound that is named as a salt.
System: not given
Assay: not given
Conditions: not given

Row | Structure (SMILES) | melting point
1 | CN(C)C[C@H]1[C@H]2CC[C@H](C2)[C@@H]1c1ccc2ccsc2c1 (as salt: hydrochloride) | 240 to 242 °C
2 | Cc1csc2ccc([C@@H]3[C@H]4CC[C@H](C4)[C@H]3CN(C)C)cc12 (as salt: hydrochloride) [N,N-dimethyl[(1R,2R,3R,4S)-3-(3-methyl-1-benzothien-5-yl)bicyclo[2.2.1]hept-2-yl]methanamine] | 250 to 252 °C
3 | CN(C)C[C@H]1[C@H]2CC[C@H](C2)[C@@H]1c1ccc2cc(F)ccc2c1 (as salt: hydrochloride) [[(1S,2S,3S,4R)-3-(6-fluoro-2-naphthyl)bicyclo[2.2.1]hept-2-yl]-N,N-dimethylmethanamine] | 137 to 138 °C
4 | CN(C)CC1C2CCC(C2)C1c1ccc2ccccc2c1 (stereo not drawn) (as salt: hydrochloride) [cis- N,N-dimethyl(3-naphthalen-2-ylbicyclo[2.2.1]hept-2-yl)m] [cis-N,N-dimethyl (3-naphthalen-2-ylbicyclo[2.2.1]hept-2-yl)methanamine] | 255 to 257 °C
5 | CN(C)CC1C2CCC(C2)C1c1ccc2ccccc2c1 (stereo not drawn) (as salt: hydrochloride) [trans-endo-N,N-dimethyl(3-naphthalen-2-ylbicyclo[2.2.1]hept-] [trans-endo-N,N-dimethyl(3-naphthalen-2-ylbicyclo[2.2.1]hept-2-yl)methanamine] | 249 to 250 °C

Molecular target: T1, [3H]-citalopram binding sites on rat cerebral cortical membranes (serotonin reuptake) (Rattus norvegicus, UniProt P31652)
T1 construct: from tissue; host or cells: rat cerebral cortex membranes
Assay: [3H]-Citalopram binding assay
Conditions: not given

T1 sequence (P31652 whole entry): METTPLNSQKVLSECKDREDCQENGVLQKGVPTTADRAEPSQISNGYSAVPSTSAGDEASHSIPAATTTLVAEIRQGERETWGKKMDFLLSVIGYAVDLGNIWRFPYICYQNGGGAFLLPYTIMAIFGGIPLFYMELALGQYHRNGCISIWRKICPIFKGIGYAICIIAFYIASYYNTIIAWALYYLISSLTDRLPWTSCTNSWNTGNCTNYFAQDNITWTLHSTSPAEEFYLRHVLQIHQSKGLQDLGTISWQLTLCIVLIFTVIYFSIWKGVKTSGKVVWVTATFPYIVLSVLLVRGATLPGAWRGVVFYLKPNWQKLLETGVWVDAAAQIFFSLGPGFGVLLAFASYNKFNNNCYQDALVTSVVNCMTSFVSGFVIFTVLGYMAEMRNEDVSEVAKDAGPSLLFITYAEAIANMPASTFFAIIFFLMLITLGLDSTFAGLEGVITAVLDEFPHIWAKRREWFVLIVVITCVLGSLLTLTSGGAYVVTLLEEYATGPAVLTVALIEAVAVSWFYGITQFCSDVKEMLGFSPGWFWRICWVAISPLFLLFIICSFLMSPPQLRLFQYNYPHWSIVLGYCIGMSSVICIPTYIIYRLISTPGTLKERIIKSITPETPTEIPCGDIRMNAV

Row | Structure (SMILES) | Ki
6 | CN(C)C[C@H]1[C@H]2CC[C@H](C2)[C@@H]1c1ccc2cc(F)ccc2c1 [[(1S,2S,3S,4R)-3-(6-fluoro-2-naphthyl)bicyclo[2.2.1]hept-2-yl]-N,N-dimethylmethanamine] | < 100 nM
7 | CN(C)CC1C2CCC(C2)C1c1ccc2ccccc2c1 (stereo not drawn) [trans-endo-N,N-dimethyl(3-naphthalen-2-ylbicyclo[2.2.1]hept-2-yl)methanamine] | < 100 nM
8 | CNCC1C2CCC(C2)C1c1ccc2ccccc2c1 (stereo not drawn) [trans-endo-N-methyl (3-naphthalen-2-ylbicyclo [2.2.1]hept-2-yl)methanamine] | < 100 nM

Same assay, conditions: displacement of [3H]-citalopram, rat cerebral cortical membranes, 37° C. for 90 minutes; read-out: Ki

Row | Ki | Structure (SMILES)
9 | < 100 nM | Cc1csc2ccc([C@@H]3[C@H]4CC[C@H](C4)[C@H]3CN(C)C)cc12 [N,N-dimethyl[(1R,2R,3R,4S)-3-(3-methyl-1-benzothien-5-yl)bicyclo[2.2.1]hept-2-yl]methanamine]
10 | < 100 nM | CN(C)C[C@H]1[C@H]2CC[C@H](C2)[C@@H]1c1cc2ccc(F)cc2s1 [[(1S,2S,3S,4R)-3-(6-fluoro-1-benzothien-2-yl)bicyclo[2.2.1]hept-2-yl)-N,N-dimethylmethanamine]
11 | < 100 nM | NCC1C2CCC(CC2)C1c1ccc2ccccc2c1 (stereo not drawn) [trans-(3-Naphthalen-2-ylbicyclo[2.2 .2]oct-2-yl)methanamine]

Row | Structure (SMILES) | Ki
12 | CN(C)C[C@H]1[C@H]2CC[C@H](C2)[C@@H]1c1csc2cc(F)ccc12 [[(1S,2S,3S,4R)-3-(6-fluoro-1-benzothien-3-yl)bicyclo[2.2.1]hept-2-yl]-N,N-dimethylmethanamine] | < 100 nM

From US6384281B1, “3-bicycloaryl-2-aminomethyl bicycloalkanes as serotonine reuptake inhibitors” (Eli Lilly and Company, priority 1999, dated 2002)
